Assays:
Assay type in all cases: cell-based, human
[1] = tested on: SV40-EGFP reporter cell line; test: ABA-induced recruitment of KRAB-PYL1 to ABI1-dCas9 at the SV40-EGFP reporter
From the text: The difference in KRAB-domain activity might be explained either by their intrinsic potency or by their distinct temporal dynamics. […] The interaction between plant proteins […] and PYL1 is induced by abscisic acid (ABA) in a reversible manner (FIG. 1f). A clonal SV40-EGFP reporter cell line expressing ABI1—dCas9 and a gRNA targeting two sites on the SV40 promoter was generated. These cells were then infected with either ZIM3 or KOX1 KRAB domain fused to PYL1 and treated with ABA for 20 d (FIG. 1g, solid lines). […] When ABA was withdrawn after 9d, derepression occurred with similar dynamics with both KRAB domains (FIG. 1g, dashed lines). Thus, the difference in KRAB-domain potency is not due to slower dynamics of KOX1 KRAB induced repression. […] This is consistent with previous studies showing that KRAB domains can mediate silencing via both reversible and irreversible mechanisms.

[2] = tested on: SV40 promoter driving EGFP expression in HEK293T cells; test: SV40-EGFP reporter silencing by KRAB-dCas9 fusions in HEK293T cells; conditions: KRAB fused to N terminus of dCas9, flow cytometry 21 d after infection
From the text: (§1) The human genome encodes over 350 KRAB domain proteins. It was postulated that KRAB domains would differ in their ability to silence gene expression when fused to dCas9. 57 human KRAB domains were individually fused to the N terminus of dCas9 and assayed for activity when recruited to one of two different genomically integrated reporter constructs. In one, they were recruited to a SV40 promoter driving EGFP expression in HEK293T cells, and in the other tethered to a 7×TetO array downstream of the polyadenylation site of a PGK1-EGFP-pA reporter in K562 cells (FIG. 1a). KRAB domains had strikingly different effects, spanning from almost complete silencing to no change at all (FIG. 1b,c and FIG. 5). The differences were not explained by expression levels of the dCas9 fusion (FIG. 3). […] KRAB was also fused to the C-terminus of dCas9 with similar results (see Example 5 and FIG. 3).
(§2) Cell culture. All HEK293T cells, including the SV40-EGFP reporter cell line (gift from Lei Stanley Qi lab, Stanford University), were maintained in Dulbecco's Modified Eagle's Medium (DMEM) with 10% fetal bovine serum (FBS), and 1% penicillin-streptomycin. Since the SV40-EGFP reporter cell line was originally generated with a random integration of lentivirus, a clonal line was made to ensure homogeneously high expression levels of EGFP and its targeting gRNA. […]

HEK293T cells = test: Genome-wide CRISPRi cell viability dropout screen (Dolcetto Set A); conditions: depletion of gRNAs for gold-standard essential vs non-essential genes after 21 days
From the text: Finally, the performance of the three KRAB effector constructs was investigated in a large-scale unbiased screen. […] These cells were infected with the recently described Dolcetto Set A gRNA library targeting 18,901 genes with three gRNAs per gene and measured gRNA depletion after 21 days. The relative depletion of gRNAs targeting gold-standard essential genes and non-essential genes with each construct was compared with receiver operating characteristics (ROC) curves. […] It should be noted that the AUROC values reported here are somewhat lower than what has been reported for CRISPRi screens in other cell lines like K562 and […] but in line with the previously conducted screen in HEK293T cells (FIG. 2D, E). The lower efficiency may be due to the lower expression level of TRIM28 in HEK293T cells (FIG. 3).
CRISPRi. Viral titer for each cell line was determined on 15-cm dishes with a range of virus volumes (0, 50, 100, 150, 200, 250 and 500 μl). Validated HEK293T cells with heterogeneous expression of each repressor-dCas9 derivative was transduced at a dose resulting in ˜30% […]. Selection was done with 1 μg/ml puromycin 24 hrs post transduction resulting in complete selection within 48-72 hrs (TO). At ˜30% infection efficiency, enough cells were transduced to achieve an initial representation of >500-fold for each dCas9 variant. […]

[3] = tested on: 7×TetO array downstream of the polyadenylation site of a PGK1-EGFP-pA reporter in K562 cells; test: PGK1-EGFP-pA reporter silencing by KRAB-dCas9 fusions tethered to a 7xTetO array in K562 cells; conditions: KRAB fused to N terminus of dCas9
From the text: as §1, §2

Row | Substance | level of EGFP repression ([1]; 100 μM ABA for 20 d, compared with KOX1 KRAB-PYL1) | EGFP expression relative to the original levels ([1]; after 40-d silencing followed by ABA washout) | repression of EGFP reporter [2] | repression of EGFP reporter ([2]; listed as KOX1) | AUROC (gRNA-level) (HEK293T cells) | AUROC (gene-level) (HEK293T cells) | repression of EGFP reporter [3]
1 | ZIM3 KRAB-PYL1: ZIM3 KRAB domain fused to PYL1 (SEQ ID NO: 16), recruited to ABI1-dCas9 by abscisic acid | higher level of repression | 10% | – | – | – | – | –
2 | KOX1 KRAB: KRAB domain from KOX1 (ZNF10) fused to dCas9, used in current implementations of CRISPRi | – | – | not a particularly strong repressor | did not repress the reporter very robustly | 0.62 | 0.66 | not a particularly strong repressor

From patent US20230287391A1, “KRAB FUSION REPRESSORS AND METHODS AND COMPOSITIONS FOR REPRESSING GENE EXPRESSION” (THE GOVERNING COUNCIL OF THE UNIVERSITY OF TORONTO, priority 2020, published 2023)
